Assay [1] deals with MEFs. The assay can be described thus: BrdU pulse proliferation assay with staurosporine. The assay is classed as cell-based, mouse. The settings on record: staurosporine 20 nM, 7 days, BrdU pulse at day 6. On the procedure:
(§1) Cell Cycle Arrest Assays with Staurosporine. Cultures of MEFs were incubated in FM with Staurosporine (20 nM) during 7 days while controls were incubated in FM. At day 6, a pulse of BrdU was applied overnight. MEFs were fixed at day 7 and stained with a mouse monoclonal antibody IGgl anti-BrdU FITC-conjugated (BD PharMingen, 33284×). To assess the dose-response effect of staurosporine on MEFs, these were incubated with different concentrations of staurosporine (0, 2, 20 nM) during 14 days. Visual inspection of the cell mass contraction along these 14 days was performed.
(§2) (A) MEFs were incubated with and without staurosporine (20 nM) during 7 days. Proliferation was studied by means of a BrdU pulse followed by immunostaining against BrdU. (B) MEFs were incubated, during 14 days, with different concentrations of staurosporine (0, 2, 20 nM) to further analyze the effect of proliferation in the contraction phenomenon.

In assay [2] the test system is MEFs. The assay can be described thus: Cell cycle arrest assay with staurosporine: 3D-bilateral structure development / cell mass contraction. It counts as cell-based, mouse. On the procedure:
as §1, §2

The test system of assay [3] is Mouse Embryonic Fibroblasts (MEFs). The assay can be described thus: Gel contraction and bilateral/embryoid-like structure development of MEFs in self-assembling peptide scaffold. It counts as cell-based. The settings on record: for Gel contraction: Table 4, 10 days. The method, then: In other experiments with RAD16-I, MEF cells (<8th passage) were trypsinized from 75 cm2 culture flasks, suspended in sucrose 20% and mixed with the self-assembling peptide RAD16-I (BD, Puramatrix) 0.5% to obtain a final MEF concentration of 2·10^6 cells/ml and 0.25% of RAD16-I. This suspension was seeded into inserts (Millipore) and jellified by addition of FM. After jellification, FM was added on the hydrogel. Incubation was performed at 37° C. with 5% CO2 and medium was changed every 2 days.
The shape presents bilateral symmetry (3D-bilateral) and resembles some aspects of a vertebrate embryo undergoing axis formation. Collagen I cultures presented a different morphology, basically consisting of a small spherical ball produced by equal contraction forces, without any distinctive shape or pattern.
The percentage of self-assembling peptide used for these experiments was half of the amount we described above (0.25% vs. 0.5%). […] Thus, in this example, two different parameters that may affect the development of such embryoid-like structures were studied: self-assembling peptide scaffold stiffness and fetal bovine serum concentration. […] Gel contraction and the presence of embryoid-like structure development were analyzed. nt=condition not tested.

For assay [4], the system named is EB-derived cells (mouse embryonic stem cell line R1 Oct4-GFP). The assay can be described thus: Alkaline phosphatase activity of EB-derived cells in 3D culture. It counts as cell-based. Particulars: EB-dc 3D cultures. On the procedure:
Fluorescence microscopy was used to monitor GFP expression during EB formation. The EB were harvested and allowed to settle in a tube. The medium was removed and EB were gently treated with trypsin-EDTA 1× (GIBCO). The resultant EB-derived cells were encapsulated into the peptide scaffold (3D cultures) at a final concentration of 2×10^6 cells/mL, as described above, and cultured in control medium (ES medium in the absence of LIF). 2D cultures, in regular culture plates, were also performed as controls. The EB-derived cells were plated into 12-well plate containing control medium (ES medium in the absence of LIF) at a concentration of 760,000 cells/mL (200,000 cells/cm^2). […]
Alkaline phosphatase activity. Alkaline phosphatase enzyme activity (ALP) of 2D and 3D cultures was measured in triplicate cultures before and after the osteogenic differentiation. […] ALP enzyme activity was calculated after measuring the absorbance of the reaction product formed, p-nitrophenol, at 405 nm on a spectrophotometer. […] Total protein levels were determined using a protein detection kit (Bio-Rad) based on the method of Lowry in order to normalize total protein levels. […]

The subject of assay [5] is Mouse Embryonic Fibroblasts (MEF). The assay can be described thus: Alkaline phosphatase activity of MEFs in 3D culture. It counts as cell-based. The method, then: Osteogenic differentiation of Mouse Embryonic Fibroblasts (MEF). Mouse embryonic fibroblasts (MEFs) were purchased from ATCC(SCRC-1008). They were isolated from mouse embryos derived from C57BL/6 mothers at 14 days of gestation (E14). The MEFs were expanded prior to osteogenic induction in MEF culture medium of DMEM (high glucose) containing 10% FBS (fetal bovine serum, Hyclone), 4 mM L-glutamine (GIBCO), and 1% (v/v) penicillin-streptomycin (GIBCO). The differentiation experiments were carried out using cells between passages 3 and 5. The MEFs were encapsulated into the peptide scaffold (3D cultures) at a final concentration of 2×10^6 cells/mL, as described above (3D cultures). 2D cultures were also performed by culturing MEFs into 12-well regular culture plates. Both the 2D and 3D cultures were maintained in MEF culture medium for 2-4 days (FIG. 1B). Next, the MEF medium was changed by osteogenic medium (same as in mESC osteogenic induction section). Also, […] of 1-alpha,25-(OH)2 vitamin D3 (Sigma) was added to the osteogenic medium as previously described for mouse-derived NIH 3T3 fibroblasts. The cultures were maintained for different time periods (FIG. 1B, STAGE 3) in osteogenic medium at 37° C. in humidified air with 5% CO2. The medium was regularly exchanged with fresh osteogenic medium.
Alkaline phosphatase activity. Alkaline phosphatase enzyme activity (ALP) of 2D and 3D cultures was measured in triplicate cultures before and after the osteogenic differentiation. The cultures were rinsed twice with […] (TBS, 50 mM Tris base, 0.15 M NaCl, pH 7.4) and then the cells were incubated with 5 mM p-nitrophenyl phosphate (p-nitrophenyl phosphate disodium salt tablets, Sigma) solution in glycine buffer (50 mM glycine, 1 mM MgCl2, pH 10.5) for 30 min at 37° C. ALP enzyme activity was calculated after measuring the absorbance of the reaction product formed, p-nitrophenol, at 405 nm on a spectrophotometer. Standards were prepared by consecutively diluting 10 mM p-nitrophenol (Sigma) solution in glycine buffer at concentrations ranging from 0.0001 mM to 0.06 mM. Total protein levels were determined using a protein detection kit (Bio-Rad) based on the method of Lowry in order to normalize total protein levels. The final APL activity was expressed in units/mg of protein (one unit will hydrolyze 1 micromoles of p-nitrophenyl phosphate per minute at pH 10.5).

Entries after “also recorded” stand apart in the source; their conditions may differ.

Consider `CN[C@@H]1C[C@H]2O[C@@](C)([C@@H]1OC)n1c3ccccc3c3c4c(c5c6ccccc6n2c5c31)C(=O)NC4` [Staurosporine], for which the “Incorporation of BrdU” value in assay [1] is given as “no incorporation”. The “Effect on 3D-bilateral structure development at diluted concentrations” value in assay [2] (staurosporine 0, 2, 20 nM, 14 days) was “dose-response inhibitory effect”. Further, the “Development of the 3D-bilateral structure” value in assay [2] (staurosporine 20 nM, 7 days, MEFs in RAD16-I) is “clearly abrogated; also recorded: prevented”.

As to AcN-RADARADARADARADA-CONH2 [Peptide], the Contraction result in assay [3] (Table 3, 0.25% RAD, 2% FBS) is reported as “No contraction”; in assay [3] (Table 3, 0.25% RAD, 10% FBS), “Low”; in assay [3] (Table 3, 0.25% RAD, 15% FBS), “High contraction;”; in assay [3] (Table 3, 0.5% RAD, 2% FBS), “No contraction”; in assay [3] (Table 3, 0.5% RAD, 10% FBS), “Very low”; in assay [3] (Table 3, 0.5% RAD, 15% FBS), “Low”. In addition, in assay [3] (Table 3, 0.25% RAD, 15% FBS), the Structure formation result was “bilateral structures”. Besides, the Gel contraction entry was “Low” in assay [3] (peptide gel 0.25%, FBS 2%); “High” in assay [3] (peptide gel 0.25%, FBS 15%); “Low” in assay [3] (peptide gel 0.5%, FBS 15%). Also, the ALP activity in assay [4] (control (no osteogenic induction)) was determined as 190.2 U/mg; in assay [4] (osteogenic-induced) it was 87 U/mg; in assay [5] (MEF 3D control cultures, after culture) it was 68.1 U/mg; in assay [5] (MEF 3D control cultures, initial) it was 1.8 U/mg; in assay [5] (MEF 3D osteogenic cultures, after osteogenic induction) it was 118.3 U/mg; in assay [5] (MEF 3D osteogenic cultures, initial), 1.5 U/mg.

The record behind these values is patent publication US20090297579A1, “Control of Cells and Cell Multipotentiality in Three Dimensional Matrices” (Massachusetts Institute of Technology, priority 2006, published 2009).
